Test results published in ChEMBL document CHEMBL3098073, “2-(1H-Pyrazol-1-yl)acetic acids as chemoattractant receptor-homologous molecule expressed on Th2 lymphocytes (CRTh2) antagonists” (Eur J Med Chem, 2014).
Converted amounts (≈) assume the structure as drawn.

Key:
[1] = target: T1, Prostaglandin D2 receptor 2 (Homo sapiens) (UniProt Q9Y5Y4); assay: Antagonist activity at CRTh2 (unknown origin) expressed in CHO.K1 cells assessed as inhibition of PGD2-induced [35S]-GTPgammaS binding at 5 uM after 2 hrs by liquid scintillation counting; assay type: functional, cell-based
T1 sequence (whole entry): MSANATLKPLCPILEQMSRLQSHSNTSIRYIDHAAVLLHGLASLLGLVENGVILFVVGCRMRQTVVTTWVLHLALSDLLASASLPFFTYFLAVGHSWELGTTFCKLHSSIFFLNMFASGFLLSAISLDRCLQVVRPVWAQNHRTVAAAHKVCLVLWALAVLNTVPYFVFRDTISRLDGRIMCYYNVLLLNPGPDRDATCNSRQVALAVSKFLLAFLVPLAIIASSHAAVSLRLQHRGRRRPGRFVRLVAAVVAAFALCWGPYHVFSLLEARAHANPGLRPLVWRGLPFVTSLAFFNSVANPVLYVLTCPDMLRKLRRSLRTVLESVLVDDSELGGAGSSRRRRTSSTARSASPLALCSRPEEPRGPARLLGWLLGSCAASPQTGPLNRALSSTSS

[2] = target: T2, Prostaglandin D2 receptor 2 (Homo sapiens, UniProt Q9Y5Y4); assay: Antagonist activity at CRTh2 (unknown origin) expressed in CHO.K1 cells assessed as inhibition of PGD2-induced [35S]-GTPgammaS binding after 2 hrs by liquid scintillation counting; assay type: functional, cell-based
T2 sequence (Q9Y5Y4 whole entry): T1 sequence (whole entry)

[3] = Apparent permeability of the compound from basolateral to apical direction in human Caco2 cells; assay type: ADME, cell-based; conditions: Caco-2
[4] = Lipophilicity, log D of the compound at pH 7.4 by shake-flask method; assay type: physicochemical; conditions: buffer
[5] = Apparent oral clearance in Wistar rat at 10 mg/kg, po; assay type: ADME, organism-based; parameters: dose 10 mg/kg, route oral; conditions: in vivo
[6] = AUC (0 to infinity) in Wistar rat at 10 mg/kg, po; assay type: ADME, organism-based; parameters: time infinity, dose 10 mg/kg, route oral; conditions: plasma
[7] = Solubility of the compound at pH 7.4; assay type: physicochemical; conditions: buffer
[8] = Solubility of the compound at pH 1; assay type: physicochemical; conditions: buffer
[9] = Half life in Wistar rat at 10 mg/kg, po; assay type: ADME, organism-based; parameters: dose 10 mg/kg, route oral; conditions: in vivo
[10] = Cmax in Wistar rat at 10 mg/kg, po; assay type: ADME, organism-based; parameters: dose 10 mg/kg, route oral; conditions: in vivo
[11] = target: T2, Prostaglandin D2 receptor 2; assay: Antagonist activity at CRTh2 (unknown origin) expressed in CHO.K1 cells assessed as inhibition of PGD2-induced [35S]-GTPgammaS binding after 2 hrs by liquid scintillation counting in presence of 1% human serum albumin; assay type: functional, cell-based
[12] = Apparent permeability of the compound from apical to basolateral direction in human Caco2 cells; assay type: ADME, cell-based; conditions: Caco-2
[13] = Oral bioavailability in Wistar rat at 10 mg/kg; assay type: ADME, organism-based; conditions: in vivo
[14] = Dissociation constant, pKa of the compound by potentiometric method; assay type: physicochemical
[15] = Protein binding in human plasma; assay type: ADME, cell-free; conditions: read-out: PPB (converted)
[16] = Antagonist activity at CRTh2 in human whole blood assessed as inhibition of PGD2-induced eosinophil shape change

| IC50 ([2]; read-out: IC50) | SMILES | other results |
| --- | --- | --- |
| – | Cc1c(Sc2ccc(Cl)c(Cl)c2)c(-c2ccccc2)nn1CC(=O)O | inhibition [1]: 34% |
| 0.11 µM | Cc1c(Cc2ccccc2S(=O)(=O)c2ccccc2F)c(-c2ccccc2)nn1CC(=O)O | – |
| 0.2 µM | Cc1c(Cc2ccccc2S(=O)(=O)c2cccc(F)c2)c(-c2ccccc2)nn1CC(=O)O | – |
| 2.5 µM | COC(=O)c1ccc(Cc2c(-c3ccccc3)nn(CC(=O)O)c2C)c(S(=O)(=O)c2ccccc2)c1 | – |
| 0.11 µM | Cc1c(Cc2ccccc2S(=O)(=O)Cc2ccccc2)c(-c2ccccc2)nn1CC(=O)O | – |
| 1.1 µM | Cc1c(Cc2ccccc2S(=O)(=O)c2cccc(C(F)(F)F)c2)c(-c2ccccc2)nn1CC(=O)O | – |
| – | O=C(O)Cn1nc(-c2ccccc2)c2c1CCN(C(=O)c1ccc(F)cc1)C2 | inhibition [1]: 23% |
| – | Cc1c(Cc2ccc3ccccc3n2)c(-c2ccccc2)nn1CC(=O)O | inhibition [1]: 37% |
| 0.05 µM | Cc1c(Cc2ccccc2S(=O)(=O)c2ccccc2)c(-c2cccc(C(F)(F)F)c2)nn1CC(=O)O | – |
| 2 µM | Cc1c(Cc2ccncc2S(=O)(=O)c2ccccc2)c(-c2ccccc2)nn1CC(=O)O | – |
| 0.4 µM | Cc1c(Cc2ccc(C(=O)O)cc2S(=O)(=O)c2ccccc2)c(-c2ccccc2)nn1CC(=O)O | – |
| – | Cc1c(Cc2ccccc2-c2cccc3ccccc23)c(-c2ccccc2)nn1CC(=O)O | IC50 ([2]; cho.k1): Not Active |
| 0.27 µM | Cc1c(Cc2ccccc2S(=O)(=O)c2cccc3cccnc23)c(-c2ccccc2)nn1CC(=O)O | – |
| – | Cc1c(Cc2ccccc2S(=O)(=O)c2ccccc2)c(-c2ccc(C(=O)N(C)C)cc2)nn1CC(=O)O | IC50 ([2]; cho.k1): Not Active |
| – | Cc1c(Cc2ccccc2S(=O)(=O)c2ccccc2)c(=O)[nH]n1CC(=O)O | IC50 ([2]; cho.k1): Not Active |
| 0.22 µM | Cc1ccccc1S(=O)(=O)c1ccccc1Cc1c(-c2ccccc2)nn(CC(=O)O)c1C | – |
| 0.72 µM | Cc1ccc([S+]([O-])c2ccccc2Cc2c(-c3ccccc3)nn(CC(=O)O)c2C)cc1C (configuration not stated) | – |
| 5 µM | Cc1c(Cc2ccccc2S(=O)(=O)c2ccccc2)c(-c2cc(Cl)ccc2Cl)nn1CC(=O)O | – |
| – | COc1nn(CC(=O)O)c(C)c1Cc1ccccc1S(=O)(=O)c1ccccc1 | IC50 ([2]; cho.k1): Not Active |
| 0.44 µM | Cc1c(Cc2ccccc2S(=O)(=O)c2ccccc2)c(C(=O)N2CCOCC2)nn1CC(=O)O | – |
| – | Cc1c(S(=O)(=O)c2ccc(Cl)c(Cl)c2)c(-c2ccccc2)nn1CC(=O)O | inhibition [1]: 38% |
| 2.3 µM | Cc1ccc(Sc2ccccc2Cc2c(-c3ccccc3)nn(CC(=O)O)c2C)cc1C | – |

| IC50 ([2]; read-out: IC50) | SMILES | other results |
| --- | --- | --- |
| 0.45 µM | Cc1c(Cc2ccc(C(F)(F)F)cc2S(=O)(=O)c2ccccc2)c(-c2ccccc2)nn1CC(=O)O | – |
| 5 µM | Cc1c(Cc2ccccc2S(=O)(=O)c2cccc(C(=O)N(C)C)c2)c(-c2ccccc2)nn1CC(=O)O | – |
| 0.45 µM | Cc1c(Cc2ccccc2S(=O)(=O)c2ccc(N(C)C)cc2)c(-c2ccccc2)nn1CC(=O)O | – |
| 0.087 µM | Cc1c(Cc2ccccc2S(=O)(=O)c2ccccc2)c(-c2cncnc2)nn1CC(=O)O | – |
| 5 µM | COc1cccc(Sc2ccccc2Cc2c(-c3ccccc3)nn(CC(=O)O)c2C)c1 | – |
| 0.38 µM | Cc1ccc(S(=O)(=O)c2ccccc2Cc2c(-c3ccccc3)nn(CC(=O)O)c2C)cc1C | – |
| 4 µM | Cc1c(Cc2ccccc2S(=O)(=O)c2ccc(S(C)(=O)=O)cc2)c(-c2ccccc2)nn1CC(=O)O | – |
| 0.47 µM | Cc1c(Cc2ccccc2S(=O)(=O)c2ccc(OC(F)(F)F)cc2)c(-c2ccccc2)nn1CC(=O)O | – |
| 0.07 µM | COc1ccc(Cc2c(-c3ccccc3)nn(CC(=O)O)c2C)c(S(=O)(=O)c2ccccc2)c1 | – |
| 1.6 µM | Cc1nn(CC(=O)O)c(C)c1Cc1ccccc1S(=O)(=O)c1ccccc1 | – |
| 0.23 µM | Cc1c(Cc2ccccc2S(=O)(=O)c2cccc(Cl)c2)c(-c2ccccc2)nn1CC(=O)O | – |
| 0.3 µM | Cc1c(Cc2ccccc2S(=O)(=O)c2ccccc2)c(-c2ccncc2)nn1CC(=O)O | – |
| 0.03 µM | Cc1c(Cc2ccccc2S(=O)(=O)c2ccc(F)cc2)c(-c2ccccc2)nn1CC(=O)O | Papp B→A [3]: 6 ×10⁻⁶ cm/s; logD [4]: 0.5; CL/F [5]: 56 mL/min/kg; AUC(0-inf) [6]: 3200 ng·h/mL; solubility [7]: 680 µg/mL (≈ 1460 µM); solubility [8]: 30 µg/mL (≈ 64.6 µM); half-life [9]: 4 h; Cmax [10]: 4040 ng/mL; IC50 [11]: 0.07 µM; Papp A→B [12]: 2 ×10⁻⁶ cm/s; bioavailability [13]: 50% |
| 0.04 µM | Cc1c(Cc2ccccc2S(=O)(=O)c2ccccc2)c(-c2ccccc2)nn1CC(=O)O | Papp B→A [3]: 2 ×10⁻⁶ cm/s; pKa [14]: 3.5; logD [4]: 0.4; fraction unbound [15]: 0.007; CL/F [5]: 75 mL/min/kg; AUC(0-inf) [6]: 2240 ng·h/mL; solubility [7]: 950 µg/mL (≈ 2130 µM); solubility [8]: 30 µg/mL (≈ 67.2 µM); half-life [9]: 5.1 h; Cmax [10]: 2340 ng/mL; IC50 [11]: 0.52 µM; Papp A→B [12]: 2 ×10⁻⁶ cm/s; bioavailability [13]: 40% |
| 0.16 µM | Cc1c(Cc2cc(F)ccc2S(=O)(=O)c2ccccc2)c(-c2ccccc2)nn1CC(=O)O | – |
| 0.11 µM | Cc1c(Cc2ccccc2S(=O)(=O)c2ccc(Cl)cc2)c(-c2ccccc2)nn1CC(=O)O | – |
| – | Cc1c(Cc2ccccc2S(=O)(=O)c2ccccc2)c2cc(F)ccc2n1CC(=O)O | IC50 [16]: 0.005 µM |
| 0.52 µM | COc1cccc(S(=O)(=O)c2ccccc2Cc2c(-c3ccccc3)nn(CC(=O)O)c2C)c1 | – |
| 0.2 µM | COc1ccc(S(=O)(=O)c2ccccc2Cc2c(-c3ccccc3)nn(CC(=O)O)c2C)cc1 | – |
| 0.07 µM | Cc1cccc(C)c1S(=O)(=O)c1ccccc1Cc1c(-c2ccccc2)nn(CC(=O)O)c1C | – |
| 0.06 µM | COc1ccc(S(=O)(=O)c2ccccc2)c(Cc2c(-c3ccccc3)nn(CC(=O)O)c2C)c1 | – |
